ChEMBL document CHEMBL6114947, “Navigating cancer therapy: Harnessing the power of peptide-drug conjugates as precision delivery vehicles” (Eur J Med Chem, 2025)

Columns and labels:
PANC-1 = test: Antitumor activity against human PANC-1 cells xenografted in BALB/c mouse assessed as reduction in tumor volume at 2 mg/kg, iv administered once every 2 days and measured on day 74 relative to control; assay type: functional; parameters: scale not given: the % may be the effect or the level left; conditions: time 74 day
[1] = Half life in BALB/c mouse plasma at 5 mg/kg, iv by LC-MS/MS analysis

Q: For `COc1cccc2c1C(=O)c1c(O)c3c(c(O)c1C2=O)C[C@@](O)(C(C)=O)C[C@@H]3O[C@H]1C[C@H](N)[C@H](O)[C@H](C)O1` [DAUNORUBICIN], which Activity (PANC-1) is on record?
A: 32.2%

Q: Which half-life [1] does the source give for `COc1cccc2c1C(=O)c1c(O)c3c(c(O)c1C2=O)C[C@@](O)(C(=O)CO)C[C@@H]3O[C@H]1C[C@H](N)[C@H](O)[C@H](C)O1` [DOXORUBICIN] here?
A: 29.4 h
